Values joined by “and” are separate entries in the source; they are usually repeats but may differ in a detail not shown here. Identical values can stand only once.
How the values were obtained:
HGT-1 cells [1] = assay: Proton secretion in HGT-1 cells after stimulation with bitter substances (intracellular pH, SNARF-1-AM); type: cell-based, human; conditions: 10 min stimulation, vs untreated cells
Protocol: The human gastric tumor cell line HGT-1 was used for all cell culture experiments. This cell line has been obtained from Dr. C. Laboisse (Laboratory of Pathological Anatomy, Nantes, France). The cells were cultured under standard conditions at 37° C., 95% humidity, and 5% CO2 in DMEM with 4 g/L glucose, 10% fetal bovine serum, 2% L-glutamine, and 1% penicillin/streptomycin. For the reverse transcription and the intracellular proton concentration assay, the cells were harvested using trypsin/EDTA. Cell viability has been determined using trypan blue staining for which the cells were seeded in a defined cell number in 35 mm dishes respectively in black 96-well plates. […] In a 96-well plate, a total of 100 000 HGT-1 cells were spread and allowed to settle for 24 h at 37° C., 95% humidity, and 5% CO2. Cells were washed once with Krebs-Ringer-HEPES buffer (KRHB), and incubated with the fluorescence dye SNARF-1-AM at a concentration of 3 μM for 30 min. […] As positive control, the cells were treated with 1 mM histamine. Fluorescence was analyzed at an excitation of 488 nm, whereas emission wavelengths were recorded at 580 nm and 640 nm on an Infinite 200 Pro plate reader. The ratio of the fluorescence intensities from those two emission wavelengths allows an accurate determination of pH when plotted on a calibration curve. […] The potassium buffer calibration solutions for the intracellular pH measurement consisted of 20 mM NaCl, 110 mM KCl, 1 mM CaCl2, 1 mM MgSO4, 18 mM D-glucose, and 20 mM HEPES. The pH calibration was fit to a linear regression. Intracellular proton concentration was calculated from the pH. The reduced amount of protons in the cell was calculated by log 2 transformation of the ratio between treated and untreated cells (control). The presented data is given as percent variation in comparison to untreated cells. […] Statistic: one-way Anova with post-hoc Test after Dunn's. Significant differences (p<0.05) are indicated by letters. […] Statistic: one-way Anova with post-hoc Test after Dunn's. Significant differences (p<0.05) are indicated by letters.

HGT-1 cells [2] = assay: Reduction of bitter substance induced proton secretion in HGT-1 cells by bitter-masking compounds; type: cell-based, human; conditions: 10 min
Protocol: The human gastric tumor cell line HGT-1 was used for all cell culture experiments. This cell line has been obtained from Dr. C. Laboisse (Laboratory of Pathological Anatomy, Nantes, France). The cells were cultured under standard conditions at 37° C., 95% humidity, and 5% CO2 in DMEM with 4 g/L glucose, 10% fetal bovine serum, 2% L-glutamine, and 1% penicillin/streptomycin. For the reverse transcription and the intracellular proton concentration assay, the cells were harvested using trypsin/EDTA. Cell viability has been determined using trypan blue staining for which the cells were seeded in a defined cell number in 35 mm dishes respectively in black 96-well plates. […] In a 96-well plate, a total of 100,000 HGT-1 cells were spread and allowed to settle for 24 h at 37° C., 95% humidity, and 5% CO2. Cells were washed once with KRHB and incubated with the fluorescence dye SNARF-1-AM at a concentration of 3 μM for 30 min. […] As positive control, the cells were treated with 1 mM histamine. Fluorescence was analyzed at an excitation of 488 nm and emission wavelengths were recorded at 580 nm and 640 nm on an Infinite 200 Pro plate reader. The ratio of the fluorescence intensities from those two emission wavelengths allows an accurate determination of pH when plotted on a calibration curve. […] The potassium buffer calibration solutions for the intracellular pH measurement consisted of 20 mM NaCl, 110 mM KCl, 1 mM CaCl2, 1 mM MgSO4, 18 mM D-glucose, and 20 mM HEPES. The pH calibration was fit to a linear regression curve. Intracellular proton concentration was calculated from the pH. The reduced amount of protons in the cell was calculated by log 2 transformation of the ratio between treated and untreated cells (control). The presented data is given as percent variation in comparison to untreated cells.

[3] = system: sensorically-trained expert panel; assay: Sensoric assessment: bitter-reduction of a bitter tasting solution; type: in vivo, human; set-up: key to Bitterness Bitter compound + Test substance: 1 = not bitter, 10 = extremely bitter; conditions: for Bitterness Bitter compound alone: scale 1 [not bitter] to 10 [extremely bitter]; for Bitterness Bitter compound + Test substance: scale 1 to 10
Protocol: For categorization of the bitter impression, a scale from 1 [not bitter] to 10 [extremely bitter] was used. For calculation of the percent reduction of bitter taste, the mean values of the rating of the expert panel for the solution of the bitter substance alone and the solution of the bitter substance in combination with the tested potential masking substance were compared. Significances were calculated using a paired, two sided student t-test and indicated by the p-values in Table 4.

[4] = system: TAS2R10 "knockdown" HGT-1 cells; assay: Effect of caffeine on proton secretion in TAS2R10 siRNA knockdown HGT-1 cells; type: cell-based, human; conditions: 3 mM, 10 min
Protocol: The HiPerFect transfection reagent (Qiagen) was used to transfect small interfering RNA (siRNA), targeting specifically human TAS2R10 (5′-[…]-3′; Sigma-Aldrich) into HGT-1 cells for the specific reduction of TAS2R10 expression. Cells were grown to 50% confluence in serum containing DMEM-media and incubation for 48 h was started by addition of serum-free media containing siRNA targeted against TAS2R10 (final siRNA concentration 1 nM) and HiPerFect transfection reagent (1 μL/6 pmol siRNA). Unrelated non-silencing siRNA (Qiagen) was used as negative control and siRNA targeted against Mn/Hs_MAPK1 which is known to efficiently knocks down human MAPK1 (Qiagen) was used as positive control. A mock transfection, in which only the HiPerFect transfection reagent was tested, was also carried out to exclude the effects of the transfection reagent itself. The knockdown efficiency was controlled by measuring mRNA expression of TAS2R10 using RT-qPCR as explained in example 1.
Statistics: two-way ANOVA with Student-Newman-Keuls post-hoc test, data shown as mean±SEM, n=3, tr=6.

[5] = 0.3 mM theobromine + 0.03 mM test compound
[6] = 0.3 mM theobromine + 0.3 mM test compound
[7] = 3 mM caffeine + 0.03 mM test compound
[8] = 3 mM caffeine + 0.3 mM test compound
[9] = caffeine 500 ppm + test compound 100 ppm
[10] = theobromine 300 ppm + test compound 100 ppm
[11] = caffeine 500 ppm + test compound 25 ppm
[12] = theobromine 300 ppm + test compound 25 ppm

Cn1c(=O)c2c(ncn2C)n(C)c1=O [Caffeine, caffeine]
Proton secretion T/C [%] (HGT-1 cells [1]; 0.3 μM): 25.49%
Proton secretion T/C [%] (HGT-1 cells [1]; 3 μM): 14.74%
Proton secretion T/C [%] (HGT-1 cells [1]; 30 μM): 23.43%
Proton secretion T/C [%] (HGT-1 cells [1]; 300 μM): 17.07%
Proton secretion T/C [%] (HGT-1 cells [1]; 3000 μM): 40.97%
Percent increase in proton secretion T/C [%] (HGT-1 cells [2]; 3 mM caffeine alone): 54.79% and 54.05% and 38.75% and 52.41%
Bitterness Bitter compound alone ([3]; 500 ppm): 6.7 ± 1.1 and 4.1 ± 0.9 and 6.3 ± 1.4
Percent effect on proton secretion T/C [%] ([4]; mock transfected cells): 52.80%
Percent effect on proton secretion T/C [%] ([4]; not transfected cells): 48.80%
Percent effect on proton secretion T/C [%] ([4]; siRNA TAS2R10 knockdown cells): 28.58%

O=C1C[C@@H](c2ccc(O)c(O)c2)Oc2cc(O)cc(O)c21 [Eriodictyol, eriodictyol]
Percent increase in proton secretion T/C [%] (HGT-1 cells [2]; [5]): 23.95%
Percent increase in proton secretion T/C [%] (HGT-1 cells [2]; [6]): −42.86%
Percent increase in proton secretion T/C [%] (HGT-1 cells [2]; [7]): 29.69%
Percent increase in proton secretion T/C [%] (HGT-1 cells [2]; [8]): −33.96%
% Reduction of the Bitter impression [3, 9]: 47%
Bitterness Bitter compound + Test substance [3, 9]: 3.5 ± 0.7
% Reduction of the Bitter impression [3, 10]: 36%
Bitterness Bitter compound + Test substance [3, 10]: 2.4 ± 1.2

NCCc1c[nH]cn1 [Histamine, histamine]
Proton secretion T/C [%] (HGT-1 cells [1]; 1 mM): 36.66% and 45.70%

COc1cc([C@@H]2CC(=O)c3c(O)cc(O)cc3O2)ccc1O [Homoeriodictyol, homoeriodictyol]
Percent increase in proton secretion T/C [%] (HGT-1 cells [2]; 0.3 mM theobromine + 0.003 mM test compound): 21.56%
Percent increase in proton secretion T/C [%] (HGT-1 cells [2]; [5]): 13.79%
Percent increase in proton secretion T/C [%] (HGT-1 cells [2]; [6]): −16.92%
Percent increase in proton secretion T/C [%] (HGT-1 cells [2]; [7]): 37.99%
Percent increase in proton secretion T/C [%] (HGT-1 cells [2]; [8]): 20.18%
% Reduction of the Bitter impression [3, 9]: 28%
Bitterness Bitter compound + Test substance [3, 9]: 4.5 ± 1.4
% Reduction of the Bitter impression [3, 10]: 12.5%
Bitterness Bitter compound + Test substance [3, 10]: 3.7 ± 1.3

COc1cc(C[C@H]2CO[C@H](c3ccc(O)c(OC)c3)[C@H]2CO)ccc1O [Lariciresinol, lariciresinol]
Percent increase in proton secretion T/C [%] (HGT-1 cells [2]; [5]): 31.73%
Percent increase in proton secretion T/C [%] (HGT-1 cells [2]; [6]): 17.55%
Percent increase in proton secretion T/C [%] (HGT-1 cells [2]; [7]): 46.40%
Percent increase in proton secretion T/C [%] (HGT-1 cells [2]; [8]): 21.57%
% Reduction of the Bitter impression [3, 11]: 38.6%
Bitterness Bitter compound + Test substance [3, 11]: 2.9 ± 1.41
% Reduction of the Bitter impression [3, 12]: 10.7%
Bitterness Bitter compound + Test substance [3, 12]: 3.7 ± 2.24

COc1cc(C[C@H]2COC(=O)[C@@H]2Cc2ccc(O)c(OC)c2)ccc1O [Matairesinol, matairesinol]
Percent increase in proton secretion T/C [%] (HGT-1 cells [2]; [5]): 23.41%
Percent increase in proton secretion T/C [%] (HGT-1 cells [2]; [6]): −18.25%
Percent increase in proton secretion T/C [%] (HGT-1 cells [2]; [7]): 14.39%
Percent increase in proton secretion T/C [%] (HGT-1 cells [2]; [8]): −20.43%
% Reduction of the Bitter impression [3, 11]: 35.5%
Bitterness Bitter compound + Test substance [3, 11]: 2.7 ± 1.77
% Reduction of the Bitter impression [3, 12]: 24.7%
Bitterness Bitter compound + Test substance [3, 12]: 3.4 ± 1.49

Cn1cnc2c1c(=O)[nH]c(=O)n2C [Theobromine, theobromine]
Proton secretion T/C [%] (HGT-1 cells [1]; 0.03 μM): 3.71%
Proton secretion T/C [%] (HGT-1 cells [1]; 0.3 μM): 17.71%
Proton secretion T/C [%] (HGT-1 cells [1]; 3 μM): 43.16%
Proton secretion T/C [%] (HGT-1 cells [1]; 30 μM): 44.88%
Proton secretion T/C [%] (HGT-1 cells [1]; 300 μM): 57.2%
Bitterness Bitter compound alone ([3]; 300 ppm): 3.8 ± 1.8 and 4.5 ± 2.01 and 4.2 ± 1.65 and 4.3 ± 1.8
